According to patent publication US20220362199A1, “ENRICHED POLYUNSATURATED FATTY ACID COMPOSITIONS” (NUSEED NUTRITIONAL US INC., priority 2019, published 2022):

System: LPS-stimulated human peripheral blood mononuclear cells (PBMCs)
Experiment: In vitro inhibition of LPS-stimulated cytokine/chemokine/growth factor production (Milliplex 38-plex)
Type: cell-based
Settings: for inhibitory activity on inflammatory cytokines: preliminary study, LPS-stimulated PBMC; for Inhibitory scale (0-5): D1 PBMC, 1 ng/mL LPS, 0 = no or very minimal inhibition, 1 to 2.5 = IFNγ, IL-1 series, IP-10, MCP-1, 3 = TNFα also, above 3 = some T cell cytokines, 5 = all cytokines inhibited; for immunomodulatory response type: approximately 10 μM, stimulatory = signal above 130%, inhibitory = signal below 70% of LPS-stimulated control (no FFA added)

Eicosatetraenoic acid [ETA]
inhibitory activity on inflammatory cytokines ([…]): significant inhibitory activity

CC/C=C\C/C=C\C/C=C\C/C=C\C/C=C\CCCCCC(=O)O [Syn DPA, DPA]
Inhibitory scale (0-5) (30 μM FFA preparation): 4.0 | immunomodulatory response type: both stimulatory and inhibitory responses

CC/C=C\C/C=C\C/C=C\C/C=C\C/C=C\CCCCCC(=O)O [DPAn-3, Docosapentaenoic acid n-3]
inhibitory activity on inflammatory cytokines (fatty acid as primary component or at higher amount in the preparation): significant inhibitory activity

ETA [Syn ETA]
inhibitory effect on more than half the analytes (30 μM dose, >50% reduction compared to LPS-stimulated control): strong inhibitory effect | Inhibitory scale (0-5) ([…]): 4.75 | immunomodulatory response type: both stimulatory and inhibitory responses
